Experimental data from US10960036B2, “Pharmaceutical composition for preventing and treating alpha herpes virus infection, containing, as active ingredient, Elaeocarpus sylvestris extract or fraction thereof” (priority 2016, dated 2021).

Each compound was assayed on varicella-zoster virus (VZV) (assay: Expression of VZV replication-related genes (gB, ORF62) in infected MRC-5 cells, real-time PCR). Conditions: 50 μg/mL, 3 days after infection.
Format: cell-based
Procedure: Viruses used to measure anti-replication activity were varicella-zoster virus (VZV), herpes simplex virus-1 (HSV-1) and herpes simplex virus-2 (HSV-2), which were obtained from the American Type Culture Collection (ATCC), and MRC-5 and Vero cells were also obtained from the ATCC and cultured. In a 5% CO2 incubator at 37° C., Vero cells were cultured in RPMI1640 medium containing 10% fetal bovine serum and 25 mM HEPES (2-[4-(2-hydroxyethyl) piperazin-1-yl] ethanesulfonic acid), and MRC-5 cells were cultured in MEM medium containing 10% fetal bovine serum and 25 mM HEPES.
Next, on 3 days after the infection, the cells were collected, and the inhibitory effect on viral replication was analyzed by real-time PCR using VZV glycoprotein B (gB) and open reading frame 62 (ORF62) DNAs.
MRC-5 cells were infected with VZV by culturing them with VZV-infected cells at a cell-to-cell ratio of 1:8, and treated with the Elaeocarpus sylvestris extract and its fractions (extract, hexane (Hx), dichloromethane (MC), ethyl acetate (EA), butanol (BuOH), and distilled water (DW) 50 μg/mL). On 3 days after the infection, the cells were collected, and the inhibitory effect against viral replication was analyzed by real-time PCR using VZV glycoprotein B (gB) and open reading frame 62 (ORF62) DNAs.
In order to analyze the VZV replication inhibitory effect and target of Elaeocarpus sylvestris extract components, MRC-5 cells were infected with VZV by culturing them with VZV-infected cells at a cell-to-cell ratio of 1:8, and treated with 50 μg/mL of each of Elaeocarpus sylvestris extract fractions (DS-1, DS-2, DS-3 and DS-4). On 3 days after the infection, the cells were collected, and the viral replication inhibitory effect of the fractions was analyzed by real-time PCR using VZV glycoprotein B (gB) and open reading frame 62 (ORF62) DNAs.

Question: How did the “expression of VZV glycoprotein B (gB)” value turn out when `COC(=O)c1cc(O)c(O)c(O)c1` (single isomer, unassigned) [DS-1, Methyl gallate] was run?
Answer: The value was “decreased”.

Question: And the “expression of VZV open reading frame 62 (ORF62)” value (shortened to “expression … (ORF62)”)?
Answer: Its value is “decreased”.

Question: `COC(=O)c1cc(O)c(O)c(O)c1` (single isomer, unassigned) [DS-2, Methyl gallate] was tested. Which “expression of VZV glycoprotein B (gB)” value did it give?
Answer: Its value is “decreased”.

Question: And the “expression … (ORF62)” value?
Answer: Its value is “decreased”.

Question: `O=C1O[C@H]2[C@@H]3OC(=O)c4cc(O)c(O)c(O)c4-c4c(cc(O)c(O)c4O)C(=O)OC[C@H]2O[C@@H](OC(=O)c2cc(O)c(O)c(O)c2)[C@@H]3OC(=O)c2cc(O)c(O)c3c2[C@@H]2C1=CC(=O)[C@](O)(O3)C2(O)O` [DS-3, Geraniin] was tested. Which “expression of VZV glycoprotein B (gB)” value did it give?
Answer: The value was “decreased”.

Question: What about the “expression … (ORF62)” value of the same compound?
Answer: The value was “decreased”.

Question: Casuarictin [DS-4] was tested. Which “expression of VZV glycoprotein B (gB)” value did it give?
Answer: Its value is “decreased”.

Question: And the “expression … (ORF62)” value?
Answer: The value was “decreased”.
